ChEMBL document CHEMBL1158459, “Discovery of a peroxisome proliferator activated receptor gamma (PPARgamma) modulator with balanced PPARalpha activity for the treatment of type 2 diabetes and dyslipidemia” (J Med Chem, 2009)
Activity calls are given as the source filed them. The rule behind the calls is not given here.

How the values were obtained:
[1] = target: T1, Peroxisome proliferator-activated receptor alpha (Homo sapiens, UniProt Q07869); type: functional, cell-based, COS-1
T1 sequence (Q07869 whole entry): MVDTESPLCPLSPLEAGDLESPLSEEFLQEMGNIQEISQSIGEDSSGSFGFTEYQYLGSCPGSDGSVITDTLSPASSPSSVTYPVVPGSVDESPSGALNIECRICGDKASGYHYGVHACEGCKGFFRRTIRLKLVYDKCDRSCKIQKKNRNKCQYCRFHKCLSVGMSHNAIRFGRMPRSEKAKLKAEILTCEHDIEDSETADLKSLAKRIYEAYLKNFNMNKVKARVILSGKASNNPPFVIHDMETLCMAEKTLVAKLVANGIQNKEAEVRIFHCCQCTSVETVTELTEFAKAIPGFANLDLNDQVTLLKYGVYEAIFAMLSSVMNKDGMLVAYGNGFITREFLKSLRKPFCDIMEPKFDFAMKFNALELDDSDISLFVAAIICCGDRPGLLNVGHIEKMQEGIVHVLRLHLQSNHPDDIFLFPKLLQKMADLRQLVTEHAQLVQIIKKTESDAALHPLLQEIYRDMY
Description: Agonist activity at human PPARalpha receptor expressed in african green monkey COS1 cells co-transfected with fused yeast Gal4-DBD by transactivation assay

Rattus norvegicus [2] = assay: Antidiabetic activity in Zucker fa/fa rat assessed as decrease in triglyceride levels at 0.03 mg/kg, po once daily for 7 days; type: functional, organism-based; parameters: dose 0.03 mg/kg
[3] = AUC in Beagle dog at 3 mg/kg, po once daily for 14 days; type: ADME, organism-based, Canis lupus familiaris; parameters: dose 3 mg/kg, route oral; details: plasma
[4] = target: Estrogen receptor (Homo sapiens) (UniProt P03372); assay: Activity at ERalpha receptor up to 10 uM by transactivation assay
Chain of Estrogen receptor (Homo sapiens) (P03372 whole entry): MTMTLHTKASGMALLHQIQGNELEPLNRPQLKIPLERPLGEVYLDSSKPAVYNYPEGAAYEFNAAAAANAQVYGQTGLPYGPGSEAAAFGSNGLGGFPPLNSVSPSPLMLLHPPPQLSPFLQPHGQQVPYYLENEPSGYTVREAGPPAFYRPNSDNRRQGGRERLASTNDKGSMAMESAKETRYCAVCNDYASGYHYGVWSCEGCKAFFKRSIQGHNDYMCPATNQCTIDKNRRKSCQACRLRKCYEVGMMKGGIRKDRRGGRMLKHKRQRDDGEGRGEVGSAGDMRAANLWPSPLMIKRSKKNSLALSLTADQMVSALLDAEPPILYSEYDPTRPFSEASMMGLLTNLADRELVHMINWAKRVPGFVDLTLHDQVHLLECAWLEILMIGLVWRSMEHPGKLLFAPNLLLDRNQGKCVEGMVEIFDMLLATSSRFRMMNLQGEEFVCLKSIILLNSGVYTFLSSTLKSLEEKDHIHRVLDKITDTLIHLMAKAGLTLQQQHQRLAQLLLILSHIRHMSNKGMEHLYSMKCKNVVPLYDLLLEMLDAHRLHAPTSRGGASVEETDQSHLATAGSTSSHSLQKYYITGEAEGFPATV

Syrian golden hamster [5] = assay: Antidiabetic activity in Syrian golden hamster assessed as reduction in cholesterol level at 3 mg/kg, po once daily for 9 days relative to control; type: functional, Mesocricetus auratus; parameters: scale not given: the % may be the effect or the level left
Mus musculus [6] = assay: Antidiabetic activity in high fat diet-fed streptozotocin-treated mouse assessed as reduction in plasma glucose levels at 30 mg/kg, po once daily for 12 days relative to control; type: functional; parameters: scale not given: the % may be the effect or the level left
Mus musculus [7] = assay: Antidiabetic activity in ob/ob mouse assessed as reduction in plasma triglyceride levels at 3 mg/kg, po once daily for 5 days relative to control; type: functional; parameters: scale not given: the % may be the effect or the level left
[8] = target: T2, Peroxisome proliferator-activated receptor alpha (Mus musculus, UniProt P23204); assay: Agonist activity at mouse PPARalpha receptor expressed in african green monkey COS1 cells co-transfected with fused yeast Gal4-DBD by transactivation assay; type: functional, cell-based, COS-1
T2 sequence (P23204 whole entry): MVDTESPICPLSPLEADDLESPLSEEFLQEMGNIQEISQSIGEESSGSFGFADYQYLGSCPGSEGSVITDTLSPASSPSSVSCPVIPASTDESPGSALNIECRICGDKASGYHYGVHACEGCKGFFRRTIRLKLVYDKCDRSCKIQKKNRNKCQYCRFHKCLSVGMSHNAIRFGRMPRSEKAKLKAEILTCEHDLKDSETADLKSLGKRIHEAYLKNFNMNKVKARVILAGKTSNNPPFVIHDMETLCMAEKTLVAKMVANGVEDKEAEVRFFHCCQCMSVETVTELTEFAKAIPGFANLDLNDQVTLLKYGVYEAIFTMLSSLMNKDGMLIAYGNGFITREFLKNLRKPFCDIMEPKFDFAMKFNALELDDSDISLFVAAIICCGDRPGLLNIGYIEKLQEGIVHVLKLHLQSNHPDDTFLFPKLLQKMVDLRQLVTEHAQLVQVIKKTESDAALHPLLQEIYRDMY

[9] = target: Oxysterols receptor LXR-alpha (Homo sapiens) (UniProt Q13133); assay: Activity at LXRalpha receptor up to 10 uM by transactivation assay
Chain of Oxysterols receptor LXR-alpha (Homo sapiens) (Q13133 whole entry): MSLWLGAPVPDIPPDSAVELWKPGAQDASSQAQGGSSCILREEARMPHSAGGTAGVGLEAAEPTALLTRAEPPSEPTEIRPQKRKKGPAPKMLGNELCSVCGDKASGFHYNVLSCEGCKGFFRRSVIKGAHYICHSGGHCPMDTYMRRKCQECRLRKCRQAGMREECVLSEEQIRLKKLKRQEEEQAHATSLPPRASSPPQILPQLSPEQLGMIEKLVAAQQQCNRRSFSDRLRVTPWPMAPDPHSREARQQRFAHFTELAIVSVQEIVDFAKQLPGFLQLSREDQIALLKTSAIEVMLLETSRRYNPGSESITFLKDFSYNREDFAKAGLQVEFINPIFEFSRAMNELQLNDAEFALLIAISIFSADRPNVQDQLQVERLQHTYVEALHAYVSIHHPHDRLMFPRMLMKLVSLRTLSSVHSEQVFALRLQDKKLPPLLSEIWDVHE

Mus musculus [10] = assay: Antidiabetic activity in ob/ob mouse assessed as reduction in plasma glucose levels at 3 mg/kg, po once daily for 5 days relative to control; type: functional; parameters: scale not given: the % may be the effect or the level left
Rattus norvegicus [11] = assay: Toxicity in Sprague-Dawley rat assessed as increase bilirubin levels at 60 mg/kg, po once daily for 14 days; type: organism-based; parameters: dose 60 mg/kg, route oral; details: in vivo, 336 h
[12] = target: Retinoic acid receptor RXR-alpha (Homo sapiens) (UniProt P19793); assay: Activity at RXRalpha receptor up to 10 uM by transactivation assay
Chain of Retinoic acid receptor RXR-alpha (Homo sapiens) (P19793 whole entry): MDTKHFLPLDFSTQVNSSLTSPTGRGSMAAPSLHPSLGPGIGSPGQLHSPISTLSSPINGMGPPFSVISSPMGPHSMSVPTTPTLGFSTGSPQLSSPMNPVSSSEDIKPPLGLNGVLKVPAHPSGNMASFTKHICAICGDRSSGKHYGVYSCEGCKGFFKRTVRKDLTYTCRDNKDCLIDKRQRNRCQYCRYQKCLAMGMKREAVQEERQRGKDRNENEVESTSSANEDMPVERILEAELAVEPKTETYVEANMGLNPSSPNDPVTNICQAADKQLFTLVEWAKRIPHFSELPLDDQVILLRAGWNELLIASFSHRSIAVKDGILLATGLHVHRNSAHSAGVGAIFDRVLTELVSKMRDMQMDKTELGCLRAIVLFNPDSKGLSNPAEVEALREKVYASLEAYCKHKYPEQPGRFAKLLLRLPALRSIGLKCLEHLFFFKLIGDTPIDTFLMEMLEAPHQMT

Rattus norvegicus [13] = assay: Antidiabetic activity in Zucker fa/fa rat assessed as decrease in triglyceride levels at 0.3 mg/kg, po once daily for 7 days; type: functional, organism-based; parameters: dose 0.3 mg/kg
[14] = target: Nuclear receptor subfamily 1 group I member 2 (Homo sapiens, UniProt O75469); assay: Activity at PXR receptor up to 10 uM by transactivation assay
Chain of Nuclear receptor subfamily 1 group I member 2 (O75469 whole entry): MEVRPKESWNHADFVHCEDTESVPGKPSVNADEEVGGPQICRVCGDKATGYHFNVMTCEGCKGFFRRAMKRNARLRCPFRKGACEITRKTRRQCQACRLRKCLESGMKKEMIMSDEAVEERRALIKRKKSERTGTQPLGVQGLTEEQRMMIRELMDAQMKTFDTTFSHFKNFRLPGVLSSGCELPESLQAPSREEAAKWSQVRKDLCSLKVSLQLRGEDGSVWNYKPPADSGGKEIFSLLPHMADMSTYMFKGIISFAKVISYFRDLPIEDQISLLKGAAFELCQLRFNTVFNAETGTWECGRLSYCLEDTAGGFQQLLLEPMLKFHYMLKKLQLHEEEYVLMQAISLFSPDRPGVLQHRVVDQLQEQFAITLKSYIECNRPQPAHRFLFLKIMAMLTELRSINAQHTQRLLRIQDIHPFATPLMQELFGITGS

Syrian golden hamster [15] = assay: Antidiabetic activity in Syrian golden hamster assessed as reduction in cholesterol level at 0.3 mg/kg, po once daily for 9 days relative to control; type: functional, Mesocricetus auratus; parameters: scale not given: the % may be the effect or the level left
[16] = AUC in Sprague-Dawley rat at 60 mg/kg, po once daily for 14 days; type: ADME, organism-based; parameters: dose 60 mg/kg, route oral; details: plasma
[17] = AUC in C57BLKS/J-m+/+Leprdb db/db mouse at 10 mg/kg, po once daily for 11 days; type: ADME, organism-based; parameters: dose 10 mg/kg, route oral; details: plasma
Syrian golden hamster [18] = assay: Antidiabetic activity in Syrian golden hamster assessed as reduction in triglyceride level at 3 mg/kg, po once daily for 9 days relative to control; type: functional, Mesocricetus auratus; parameters: scale not given: the % may be the effect or the level left
[19] = target: Thyroid hormone receptor beta (Homo sapiens) (UniProt P10828); assay: Activity at TRbeta receptor up to 10 uM by transactivation assay
Chain of Thyroid hormone receptor beta (Homo sapiens) (P10828 whole entry): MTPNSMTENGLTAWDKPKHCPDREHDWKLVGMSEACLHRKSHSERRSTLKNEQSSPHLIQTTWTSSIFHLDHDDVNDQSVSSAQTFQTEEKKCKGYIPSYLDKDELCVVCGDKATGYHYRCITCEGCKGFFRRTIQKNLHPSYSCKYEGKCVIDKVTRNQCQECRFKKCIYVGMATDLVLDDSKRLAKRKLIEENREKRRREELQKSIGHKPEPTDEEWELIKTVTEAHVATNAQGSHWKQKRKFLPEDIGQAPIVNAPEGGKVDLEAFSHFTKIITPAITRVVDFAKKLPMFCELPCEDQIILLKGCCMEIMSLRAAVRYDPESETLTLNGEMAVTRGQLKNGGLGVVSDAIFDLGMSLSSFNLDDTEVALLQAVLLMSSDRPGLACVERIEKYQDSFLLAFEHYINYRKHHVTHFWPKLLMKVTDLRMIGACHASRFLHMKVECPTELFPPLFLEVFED

Cytochrome P450 2C9 = Cytochrome P450 2C9 (Homo sapiens, UniProt P11712); assay: Inhibition of CYP2C9; type: ADME
Chain of Cytochrome P450 2C9 (P11712 whole entry): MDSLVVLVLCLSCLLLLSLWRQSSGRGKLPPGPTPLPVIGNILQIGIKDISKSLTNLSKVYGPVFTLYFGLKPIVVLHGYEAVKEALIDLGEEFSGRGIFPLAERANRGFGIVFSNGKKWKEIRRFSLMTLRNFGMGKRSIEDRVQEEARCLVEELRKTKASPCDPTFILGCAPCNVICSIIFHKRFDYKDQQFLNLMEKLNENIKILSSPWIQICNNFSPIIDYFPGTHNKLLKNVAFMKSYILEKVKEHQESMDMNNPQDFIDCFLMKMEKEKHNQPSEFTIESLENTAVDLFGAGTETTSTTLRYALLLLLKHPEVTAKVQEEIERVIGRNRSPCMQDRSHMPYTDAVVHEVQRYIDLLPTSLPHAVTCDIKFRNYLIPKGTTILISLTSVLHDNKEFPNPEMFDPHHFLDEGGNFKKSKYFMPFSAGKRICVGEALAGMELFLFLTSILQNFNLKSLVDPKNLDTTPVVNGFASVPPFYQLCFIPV

Mus musculus [20] = assay: Antidiabetic activity in high fat diet-fed streptozotocin-treated mouse assessed as reduction in plasma glucose levels at 5 mg/kg, po once daily for 12 days relative to control; type: functional; parameters: scale not given: the % may be the effect or the level left
Rattus norvegicus [21] = assay: Toxicity in Zucker fa/fa rat assessed as increase in plasma volume at 15 mg/kg, po treated once daily for 7 days; type: organism-based; parameters: dose 15 mg/kg, route oral; details: in vivo, 168 h
Rattus norvegicus [22] = assay: Antidiabetic activity in Zucker fa/fa rat assessed as decrease in free fatty acid levels at 10 mg/kg, po once daily for 7 days; type: functional, organism-based; parameters: dose 10 mg/kg
Rattus norvegicus [23] = assay: Toxicity in Zucker fa/fa rat assessed as increase in heart weight at 15 mg/kg, po treated once daily for 7 days; type: organism-based; parameters: dose 15 mg/kg, route oral; details: in vivo, 168 h
Rattus norvegicus [24] = assay: Antidiabetic activity in Zucker fa/fa rat assessed as decrease in free fatty acid levels at 1 mg/kg, po once daily for 7 days; type: functional, organism-based; parameters: dose 1 mg/kg
Syrian golden hamster [25] = assay: Antidiabetic activity in Syrian golden hamster assessed as reduction in cholesterol level at 1 mg/kg, po once daily for 9 days relative to control; type: functional, Mesocricetus auratus; parameters: scale not given: the % may be the effect or the level left
Mus musculus [26] = assay: Antidiabetic activity in C57BLKS/J-m+/+Leprdb db/db mouse assessed as reduction in plasma glucose levels at 1 mg/kg, po once daily for 11 days relative to control; type: functional; parameters: scale not given: the % may be the effect or the level left
Syrian golden hamster [27] = assay: Antidiabetic activity in Syrian golden hamster assessed as reduction in triglyceride level at 1 mg/kg, po once daily for 9 days relative to control; type: functional, Mesocricetus auratus; parameters: scale not given: the % may be the effect or the level left
Mus musculus [28] = assay: Antidiabetic activity in ob/ob mouse assessed as insulin correction at 3 mg/kg, po once daily for 5 days relative to control; type: functional
Canis familiaris = assay: Antidiabetic activity in Beagle dog assessed as reduction in total cholesterol level at 1 mg/kg, po once daily for 14 days relative to control; type: functional, Canis lupus familiaris; parameters: scale not given: the % may be the effect or the level left
Rattus norvegicus [29] = assay: Antidiabetic activity in Zucker fa/fa rat assessed as decrease in free fatty acid levels at 100 mg/kg, po once daily for 7 days; type: functional, organism-based; parameters: dose 100 mg/kg

SMILES: CC[C@@H](Oc1cccc(Cn2c(C)c(C(=O)c3ccc(Cl)cc3)c3ccc(OC(F)(F)F)cc32)c1)C(=O)O
- EC50 [1]: 230 nM
- Activity (Rattus norvegicus [2]): Active
- AUC at 336 h [3]: 21.4 µM·h
- Activity [4]: inactive
- Activity (Syrian golden hamster [5]): 51.4%
- Activity (Mus musculus [6]): 103%
- Activity (Mus musculus [7]): 27%
- EC50 [8]: 120 nM
- Activity [9]: inactive
- Activity (Mus musculus [10]): 21%
- Activity (Rattus norvegicus [11]): 48%
- Activity [12]: inactive
- Activity (Rattus norvegicus [13]): Active
- Activity [14]: Not Active
- Activity (Syrian golden hamster [15]): 21.9%
- AUC at 336 h [16]: 40 µM·h
- AUC at 264 h [17]: 9.6 µM·h
- Activity (Syrian golden hamster [18]): 56.9%
- Activity [19]: inactive
- IC50 (Cytochrome P450 2C9): 10000 nM
- Activity (Mus musculus [20]): 75%
- Activity (Rattus norvegicus [21]): Non-toxic
- Activity (Rattus norvegicus [22]): Active
- Activity (Rattus norvegicus [23]): Non-toxic
- Activity (Rattus norvegicus [24]): Active
- Activity (Syrian golden hamster [25]): 33.9%
- Activity (Mus musculus [26]): 78%
- Activity (Syrian golden hamster [27]): 30.7%
- Activity (Mus musculus [28]): 67%
- Activity (Canis familiaris): 12.8%
- Activity (Rattus norvegicus [29]): Active
